“Also recorded” adds a separate entry of the source. Marks after values point to notes of the source that are not given here.
Legend:
[1] = system: Monosodium Iodoacetate-induced Osteoarthritis in Rat; assay: Monosodium iodoacetate-induced osteoarthritis in rat model of cartilage damage (MIA Rat); format: in vivo, male Wistar rats
[2] = cited from earlier work
[3] = 4 weeks study, subcutaneously via osmotic pumps, 10 mg/kg/day
[4] = 4 weeks study, subcutaneously via osmotic pumps, 30 mg/kg/day
[5] = 4 weeks study, subcutaneously via osmotic pumps, 100 mg/kg/day

O=C(O)[C@@H]1C[C@@H]2CCCC[C@@H]2N1 [[2(S), 3a(S), 7a(S)]-2,3,3a,4,5,6,7,7a-octahydroindol-2-carboxylic acid]
degree of structural damage to the cartilage ([1]; 10 mg/kg PO, BID, 4 weeks post-MIA): significantly decreased | degree of structural damage to the cartilage ([1]; 30 mg/kg PO, BID, 4 weeks post-MIA): significantly decreased | IJFL (Inhibition of Joint Function Limitation) (% +/− SEM) ([1]; 2 weeks study, subcutaneously via osmotic pumps, 90 mg/kg/day, p < 0.05 versus vehicle): 85 +/− 3% | SDCES (Significant Decrease In Cartilage Erosion Severity) [1, 3]: No | SIJWHLE (Significant Increase in Joints Without Hind Limb Erosion) [1, 3]: No | IJFL (Inhibition of Joint Function Limitation) (% +/− SEM) ([1]; 4 weeks study, subcutaneously via osmotic pumps, 10 mg/kg/day, Not statistically significant): 28 +/− 14^e % | SDCES (Significant Decrease In Cartilage Erosion Severity) [1, 4]: No | SIJWHLE (Significant Increase in Joints Without Hind Limb Erosion) [1, 4]: No | IJFL (Inhibition of Joint Function Limitation) (% +/− SEM) ([1]; 4 weeks study, subcutaneously via osmotic pumps, 30 mg/kg/day, p < 0.05 versus vehicle): 94 +/− 10% | SDCES (Significant Decrease In Cartilage Erosion Severity) [1, 5]: No | SIJWHLE (Significant Increase in Joints Without Hind Limb Erosion) [1, 5]: No | IJFL (Inhibition of Joint Function Limitation) (% +/− SEM) ([1]; 4 weeks study, subcutaneously via osmotic pumps, 100 mg/kg/day, p < 0.05 versus vehicle): 78 +/− 3% | inhibiting cartilage damage and treating osteoarthritis, from analysis of proteoglycan loss ([1]; MIA Rat data that are expected): effective | joint pain ([1]; all doses, 3 to 30 mg/kg PO, BID, 4 weeks post-MIA): significantly decreased joint pain | preventing or treating cartilage damage ([1]; conclusion from MIA Rat data of Tables 1 and 2): effective | joint function limitations as defined by a reduction in differential hind-limb weight bearing ([1]; dosed orally two times per day): decrease joint function limitations | SIJWHLE (Significant Increase in Joints Without Hind Limb Erosion) ([1]; four week study, oral, two times per day, 3 mg/kg per dose, Cochran-Armitage Trend test): No | SDCES (Significant Decrease In Cartilage Erosion Severity) ([1]; four week study, oral, two times per day, 3 mg/kg per dose, Ridit Analysis): No | IJFL (Inhibition of Joint Function Limitation) (% +/− SEM) ([1]; four week study, oral, two times per day, 3 mg/kg per dose, p < 0.05 versus vehicle): 62 +/− 6% | SIJWHLE (Significant Increase in Joints Without Hind Limb Erosion) ([1]; four week study, oral, two times per day, 10 mg/kg per dose, Cochran-Armitage Trend test, actual p = 0.046): Yes^f | SDCES (Significant Decrease In Cartilage Erosion Severity) ([1]; four week study, oral, two times per day, 10 mg/kg per dose, Ridit Analysis, 10 mg/kg): significantly decrease cartilage erosion severity and No | IJFL (Inhibition of Joint Function Limitation) (% +/− SEM) ([1]; four week study, oral, two times per day, 10 mg/kg per dose, p < 0.05 versus vehicle): 70 +/− 9% | SIJWHLE (Significant Increase in Joints Without Hind Limb Erosion) ([1]; four week study, oral, two times per day, 30 mg/kg per dose, Cochran-Armitage Trend test, actual p = 0.020): Yes^e | IJFL (Inhibition of Joint Function Limitation) (% +/− SEM) ([1]; four week study, oral, two times per day, 30 mg/kg per dose, p < 0.05 versus vehicle): 83 +/− 7% | SDCES (Significant Decrease In Cartilage Erosion Severity) ([1]; four week study, oral, two times per day, 30 mg/kg per dose, p < 0.05 versus vehicle (Ridit Analysis), actual p = 0.021, 30 mg/kg): significantly decrease cartilage erosion severity; also recorded: Yes^d

Cc1onc(-c2ccccc2)c1-c1ccc(S(N)(=O)=O)cc1 [valdecoxib, 4-(5-methyl-3-phenyl-4-isoxazolyl)-benzenesulfonamide]
tolerability ([2]; combined analysis of various clinical studies): well tolerated | overall upper gastrointestinal safety profile (ulcers, perforations, obstructions and GI bleeds) ([2]; versus conventional NSAIDs studied such as ibuprofen, diclofenac and naproxen): significantly better
